Laboratory results published in PMC6345859, “Copper amine oxidases catalyze the oxidative deamination and hydrolysis of cyclic imines” (Nature Communications, 2019).
Changes are numbered by the printed parent chain.

Columns and labels:
[1] = target: T1, HarA (harmaline-metabolizing enzyme, copper amine oxidase) (Arthrobacter sp., UniProt A0A5A4PV14); experiment: resonance Raman and anaerobic UV-vis spectroscopy; assay type: binding; settings: covalent imine adduct with TPQ, difference against Y379F
T1 construct: purified from strain C-4A, or recombinant from E. coli BL21-CodonPlus(DE3)-RIL (pETDuet-harA); 71 kDa subunit, 130 kDa native, homodimer; TPQ cofactor from Y379, Cu2+
T1 sequence (A0A5A4PV14 1-649): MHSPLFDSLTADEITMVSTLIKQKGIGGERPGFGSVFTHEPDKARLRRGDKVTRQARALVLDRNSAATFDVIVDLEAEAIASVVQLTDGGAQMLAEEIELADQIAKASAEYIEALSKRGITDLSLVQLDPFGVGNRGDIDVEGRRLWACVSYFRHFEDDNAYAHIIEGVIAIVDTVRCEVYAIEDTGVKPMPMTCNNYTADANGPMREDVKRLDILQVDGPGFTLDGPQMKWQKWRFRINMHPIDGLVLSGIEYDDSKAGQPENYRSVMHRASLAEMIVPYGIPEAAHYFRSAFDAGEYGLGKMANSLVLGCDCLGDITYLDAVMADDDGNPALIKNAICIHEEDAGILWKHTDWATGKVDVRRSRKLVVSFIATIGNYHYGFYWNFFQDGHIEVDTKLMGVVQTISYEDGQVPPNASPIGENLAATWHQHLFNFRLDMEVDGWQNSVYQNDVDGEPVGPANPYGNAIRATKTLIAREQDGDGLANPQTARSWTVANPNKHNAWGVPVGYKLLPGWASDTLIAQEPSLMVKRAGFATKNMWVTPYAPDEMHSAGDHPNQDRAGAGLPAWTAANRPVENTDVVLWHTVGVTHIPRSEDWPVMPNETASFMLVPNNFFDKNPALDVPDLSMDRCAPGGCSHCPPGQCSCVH

[2] = target: T2, ECAO (copper amine oxidase from E. coli) (Escherichia coli, UniProt P46883); experiment: LC/MS or HPLC product detection; assay type: biochemical; settings: 0.5 mg/mL enzyme
T2 construct: gene tynA; recombinant, pET24a(+)-tynA in E. coli BL21-CodonPlus(DE3)-RIL, purified; TPQ cofactor

[3] = target: T1, HarA (harmaline-metabolizing enzyme, copper amine oxidase); experiment: LC/MS/MS of chymotryptic nonapeptide; phenylhydrazine titration; assay type: binding; settings: covalent; adduct with TPQ cofactor (Y379); […] Tris-HCl pH […] digest
[4] = target: T3, HarA (harmaline-metabolizing enzyme, copper amine oxidase) (Arthrobacter sp., UniProt A0A5A4PV14, D295E); experiment: LC/MS product detection; assay type: biochemical; settings: […] Hepes-NaOH pH […] °C
T3 construct: purified from strain C-4A, or recombinant from E. coli BL21-CodonPlus(DE3)-RIL (pETDuet-harA); 71 kDa subunit, 130 kDa native, homodimer; TPQ cofactor from Y379, Cu2+
T3 sequence (A0A5A4PV14 1-649 D295E): T1 sequence (A0A5A4PV14 1-649) with D295E

[5] = test system: C=C1CCCCN1; experiment: purified protein; settings: 20 mM Hepes-NaOH pH 7.0, 28 °C, O2 co-substrate, named as the enamine tautomer, treated in the paper as a cyclic imine
[6] = test system: COc1ccc2c3c([nH]c2c1)C(C)=NCC3; experiment: purified protein; settings: 20 mM Hepes-NaOH pH 7.0, 28 °C, O2 co-substrate

T2 sequence (P46883 31-757): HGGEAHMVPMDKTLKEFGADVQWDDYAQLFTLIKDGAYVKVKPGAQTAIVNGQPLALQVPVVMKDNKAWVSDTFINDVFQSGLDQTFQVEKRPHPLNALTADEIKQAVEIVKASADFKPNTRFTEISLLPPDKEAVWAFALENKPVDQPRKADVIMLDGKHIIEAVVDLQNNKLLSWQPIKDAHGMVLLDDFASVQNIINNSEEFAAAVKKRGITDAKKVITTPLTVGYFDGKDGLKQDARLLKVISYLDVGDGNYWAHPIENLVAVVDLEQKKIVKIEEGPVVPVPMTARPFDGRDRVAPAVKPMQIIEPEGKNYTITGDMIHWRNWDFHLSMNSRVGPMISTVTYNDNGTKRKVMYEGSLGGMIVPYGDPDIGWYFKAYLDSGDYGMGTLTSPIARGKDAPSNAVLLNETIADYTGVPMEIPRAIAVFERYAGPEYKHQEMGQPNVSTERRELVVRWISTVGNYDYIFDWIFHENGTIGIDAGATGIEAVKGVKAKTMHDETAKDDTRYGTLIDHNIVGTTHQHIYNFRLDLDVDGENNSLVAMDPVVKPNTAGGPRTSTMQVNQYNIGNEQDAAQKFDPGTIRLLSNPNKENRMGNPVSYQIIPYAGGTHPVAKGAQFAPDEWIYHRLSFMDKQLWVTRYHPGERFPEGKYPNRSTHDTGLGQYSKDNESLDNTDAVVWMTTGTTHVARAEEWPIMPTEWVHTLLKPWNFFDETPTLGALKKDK

Which “resonance Raman and anaerobic UV-vis spectroscopy” value [1] does the source give for `NCc1ccccc1` [BA, benzylamine] here?
Its value is “we observed a benzylamine adduct, which would be the inactive deprotonated imine intermediate, in HarA”.

How did the “LC/MS or HPLC product detection” value [2] turn out when `COc1ccc2c3c([nH]c2c1)C(C)=NCC3` [harmaline] was run?
The value was “The purified ECAO was able to convert harmaline into 2-AIMA”.

For `NNc1ccccc1` [phenylhydrazine], which “LC/MS/MS of chymotryptic nonapeptide; phenylhydrazine titration” value [3] is on record?
The value was “TPQ was also detected as a phenylhydrazine adduct in the nonapeptide”.

For `NCCc1c[nH]c2ccccc12` [tryptamine], which LC/MS product detection [4] is on record?
Its LC/MS product detection is “D295E mutant catalyzed deamination of tryptamine, although the activity was less than that of wild-type”.

With “HarA (harmaline-metabolizing enzyme, copper amine oxidase) (Arthrobacter sp.)” as the compound, how does the Km [5] read?
Its Km is 1700 µM.

And the Km [6]?
The Km was 439 µM.
